Measurements: patent publication US9994616B2, “c-Met protein agonist” (The University of Tokyo, priority 2013, dated 2018)
Where two headings read alike, the source gives them in different places. Where a SMILES comes first, the peptide text is derived from it. Bridges are numbered along the chain shown (N, C = ends). Where no end group is shown, it is not given here. [ ]: non-standard residue; d: D form. NMeR = CN[C@@H](CCCNC(=N)N)C(=O)O; NMeF = CN[C@@H](Cc1ccccc1)C(=O)O; NMeT = CN[C@H](C(=O)O)[C@@H](C)O; NMeN = CN[C@@H](CC(N)=O)C(=O)O; NMeC = CN[C@@H](CS)C(=O)O

Columns and labels:
c-Met-Fc = c-Met-Fc (Homo sapiens, UniProt P08581); test: Binding ability by surface plasmon resonance (SPR, Biacore); conditions: for kon: read-out: ka
Description: Binding ability of the thioether macrocyclic peptide was evaluated by SPR measurement using Biacore (GE Healthcare).
As a sensor chip, Sensor Chip CM5 was used and an anti-IgG antibody was immobilized on a measurement lane and a control lane by using Human Antibody Capture Kit.
On the measurement lane was immobilized c-Met-Fc, while on the control lane was immobilized Fc protein.
As a running buffer, HBS-EP+ buffer containing 0.1% DMSO was used and a dissociation constant of the thioether macrocyclic peptide was calculated at 5 different concentrations by using the single-kinetics method.

[1] = Stability of thioether macrocyclic peptide in human serum pool (LC-MS); assay type: in vitro ADME; conditions: for remaining at 1 h, 1 μM: Table 8; for remaining at 1 h, 1 μM / remaining at 4 h, 1 μM: human serum pool; for remaining at 4 h, 1 μM: Table 9; for Stability in serum (in words): human serum
Description: A DMSO solution of the thioether macrocyclic peptide to be evaluated was dissolved in a human serum pool to give a concentration of 1 μM. The human serum pool containing the thioether macrocyclic peptide thus prepared was incubated at 37° C.
After an elapse of the evaluation time, the human serum pool containing the thioether macrocyclic peptide was placed on ice and a peptide serving as an internal standard was added and mixed to give a concentration of 1 μM. The resulting mixture was added to a solid-phase extraction column (Hyper Sep SPE column, Thermo Scientific), washed with a 5% aqueous acetonitrile solution containing 0.1% TFA, and then purified by eluting with a 70% aqueous acetonitrile solution containing 0.1% TFA.
The molecular weight of the purified product was analyzed using LC-MS and the cleavage site in the serum was identified. In addition, the thioether macrocyclic peptide which had remained without being cleaved was quantitatively determined by comparing an amount relative to the internal standard at every incubation time.

c-Met = target: T1, c-Met (Homo sapiens, UniProt P08581); test: Activity of dimeric peptide by ELISA (c-Met phosphorylation level in EHMES-1 cells); assay type: cell-based; conditions: for Activity (c-Met phosphorylation level by ELISA): Table 12, EHMES-1 cells, 10 minutes stimulation; for c-Met phosphorylation: Table 13
T1 construct: endogenous in cells; host or cells: EHMES-1 (human mesothelioma)
Description: Each dimeric peptide was added to human EHMES-1 cells and the mixture was incubated for 10 minutes to stimulate the cells.
As a control experiment, a recombinant human HGF protein was added and the mixture was incubated for 10 minutes to stimulate cells.
A phosphorylation level of c-Met was quantitatively analyzed using ELISA.

human HuCCT1 cells = test: Cell migration of HuCCT1 cells on pore-containing plate; assay type: cell-based; conditions: Table 13
Description: In addition, human HuCCT1 cells were seeded on a pore-containing plate and cultured in a medium mixed with each of the dimeric peptides to evaluate activation of cell migration ability.

[2] = Table 11, monomer and dimeric peptides

Sequence of c-Met-Fc (P08581 with tags, fused parts or gaps limits assumed): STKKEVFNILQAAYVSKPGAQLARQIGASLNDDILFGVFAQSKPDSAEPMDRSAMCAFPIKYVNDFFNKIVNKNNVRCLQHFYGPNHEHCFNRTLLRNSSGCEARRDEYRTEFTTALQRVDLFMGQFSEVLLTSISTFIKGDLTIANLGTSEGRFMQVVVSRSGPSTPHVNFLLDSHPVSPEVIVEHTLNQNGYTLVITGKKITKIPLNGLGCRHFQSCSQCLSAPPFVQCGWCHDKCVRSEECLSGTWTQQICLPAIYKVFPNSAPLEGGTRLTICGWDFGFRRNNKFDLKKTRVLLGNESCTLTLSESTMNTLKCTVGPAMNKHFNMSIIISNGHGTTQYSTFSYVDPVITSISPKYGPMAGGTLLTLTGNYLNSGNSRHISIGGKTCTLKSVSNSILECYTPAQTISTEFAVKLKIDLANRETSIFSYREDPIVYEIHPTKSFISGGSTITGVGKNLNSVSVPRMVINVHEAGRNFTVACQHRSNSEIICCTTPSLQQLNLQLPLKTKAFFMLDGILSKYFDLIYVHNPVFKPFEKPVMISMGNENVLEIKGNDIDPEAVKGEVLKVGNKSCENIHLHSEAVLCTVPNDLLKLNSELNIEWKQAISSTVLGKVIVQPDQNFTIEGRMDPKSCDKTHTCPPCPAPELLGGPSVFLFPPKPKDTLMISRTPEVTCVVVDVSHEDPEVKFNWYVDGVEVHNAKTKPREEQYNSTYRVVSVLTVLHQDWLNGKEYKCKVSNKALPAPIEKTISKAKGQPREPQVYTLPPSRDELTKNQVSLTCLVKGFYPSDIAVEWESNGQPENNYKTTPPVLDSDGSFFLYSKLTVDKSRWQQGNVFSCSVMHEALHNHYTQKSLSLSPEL
Sequence of c-Met-Fc (P08581 25-307 limits assumed): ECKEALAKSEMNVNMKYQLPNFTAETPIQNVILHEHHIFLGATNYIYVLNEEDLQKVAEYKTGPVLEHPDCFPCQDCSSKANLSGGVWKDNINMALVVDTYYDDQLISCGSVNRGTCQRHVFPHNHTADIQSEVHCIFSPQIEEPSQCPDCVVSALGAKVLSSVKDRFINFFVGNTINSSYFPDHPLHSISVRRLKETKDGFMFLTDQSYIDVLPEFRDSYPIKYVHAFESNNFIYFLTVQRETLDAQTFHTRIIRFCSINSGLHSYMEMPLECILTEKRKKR
T1 sequence (P08581 25-1390): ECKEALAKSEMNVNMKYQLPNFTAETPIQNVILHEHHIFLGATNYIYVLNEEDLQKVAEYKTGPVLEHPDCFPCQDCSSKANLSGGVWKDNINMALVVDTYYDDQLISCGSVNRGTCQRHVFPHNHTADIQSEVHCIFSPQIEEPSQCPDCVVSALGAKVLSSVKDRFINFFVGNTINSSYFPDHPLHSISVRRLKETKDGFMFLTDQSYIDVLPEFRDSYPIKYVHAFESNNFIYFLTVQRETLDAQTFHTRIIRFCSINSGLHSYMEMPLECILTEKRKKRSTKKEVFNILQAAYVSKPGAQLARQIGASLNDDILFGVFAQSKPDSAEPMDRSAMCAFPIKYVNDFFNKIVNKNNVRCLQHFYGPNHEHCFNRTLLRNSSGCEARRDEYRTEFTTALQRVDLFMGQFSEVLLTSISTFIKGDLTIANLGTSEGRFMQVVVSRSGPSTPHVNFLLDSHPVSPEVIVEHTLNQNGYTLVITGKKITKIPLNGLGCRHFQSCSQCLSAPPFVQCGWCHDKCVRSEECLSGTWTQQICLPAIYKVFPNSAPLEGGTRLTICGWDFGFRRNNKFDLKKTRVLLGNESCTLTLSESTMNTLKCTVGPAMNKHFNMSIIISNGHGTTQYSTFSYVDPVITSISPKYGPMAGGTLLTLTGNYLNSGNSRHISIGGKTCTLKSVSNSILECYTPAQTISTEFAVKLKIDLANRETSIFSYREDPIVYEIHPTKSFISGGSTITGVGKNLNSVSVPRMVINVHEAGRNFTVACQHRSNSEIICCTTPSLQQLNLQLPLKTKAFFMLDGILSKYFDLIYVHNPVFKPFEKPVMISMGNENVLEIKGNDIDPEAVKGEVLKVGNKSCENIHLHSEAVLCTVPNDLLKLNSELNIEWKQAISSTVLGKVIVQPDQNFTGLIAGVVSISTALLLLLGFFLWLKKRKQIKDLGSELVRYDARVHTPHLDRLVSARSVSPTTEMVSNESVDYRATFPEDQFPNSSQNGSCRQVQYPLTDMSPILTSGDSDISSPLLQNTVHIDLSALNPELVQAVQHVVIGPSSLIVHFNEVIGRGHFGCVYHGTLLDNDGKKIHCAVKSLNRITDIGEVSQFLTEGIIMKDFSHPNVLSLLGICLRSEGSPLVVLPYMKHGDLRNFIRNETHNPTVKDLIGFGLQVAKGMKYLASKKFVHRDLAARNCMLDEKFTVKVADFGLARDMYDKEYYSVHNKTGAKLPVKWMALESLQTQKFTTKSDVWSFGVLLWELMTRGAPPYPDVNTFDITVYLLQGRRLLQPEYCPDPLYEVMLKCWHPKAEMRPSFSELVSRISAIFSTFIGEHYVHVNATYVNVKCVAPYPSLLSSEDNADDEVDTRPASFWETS

CC[C@H](C)[C@@H]1NC(=O)[C@H](Cc2ccc(O)cc2)NC(=O)CSC[C@@H](C(=O)NCC(N)=O)NC(=O)[C@H]([C@@H](C)O)NC(=O)[C@H]([C@@H](C)CC)NC(=O)[C@H](Cc2ccccc2)NC(=O)[C@H](CCCNC(=N)N)NC(=O)[C@H](Cc2c[nH]c3ccccc23)NC(=O)[C@H](CC(N)=O)NC(=O)[C@@H]2CCCN2C(=O)[C@H](CO)NC(=O)[C@H](CC(N)=O)NC(=O)[C@H](Cc2ccccc2)NC(=O)[C@H](CCC(=O)O)NC(=O)[C@H](CC(N)=O)NC(=O)[C@H](Cc2c[nH]c3ccccc23)NC(=O)[C@H](CO)NC1=O [Peptide L5-2] ({CH2CO}-YISWNEFNSPNWRFITCG-NH2; thioether N-17)
Kd (c-Met-Fc; Table 10, c-Met-Fc): 5.4 nM | kon (c-Met-Fc; Table 10, c-Met-Fc): 2.3e+06 M⁻¹ s⁻¹ | Stability in human serum (undegraded portion/time) ([1]; Table 10, 2 h, 37° C.): 71%/2 h

CC(C)C[C@@H]1NC(=O)[C@H](CC(N)=O)NC(=O)[C@H](Cc2c[nH]c3ccccc23)NC(=O)[C@H](C(C)C)NC(=O)[C@H](CCC(=O)O)NC(=O)[C@H](Cc2c[nH]cn2)NC(=O)[C@H]([C@@H](C)O)NC(=O)[C@H](CCCNC(=N)N)NC(=O)[C@H](CCCNC(=N)N)NC(=O)[C@H](CC(N)=O)NC(=O)[C@H](Cc2ccccc2)NC(=O)[C@H](CCC(N)=O)NC(=O)[C@H](CCCNC(=N)N)N(C)C(=O)[C@@H](Cc2ccc(O)cc2)NC(=O)CSC[C@@H](C(=O)NCC(N)=O)NC(=O)[C@H](CC(=O)O)NC1=O [Peptide N2] ({CH2CO}-[dY][NMeR]QFNRRTHEVWNLDCG-NH2; thioether N-16; C-terminus assumed)
kd (c-Met-Fc; Table 8, c-Met-Fc): 1.0 10^−2 s^−1 | kon (c-Met-Fc; Table 8, c-Met-Fc): 710000 M⁻¹ s⁻¹ | remaining at 1 h, 1 μM ([1]; 37° C.): 5.4%

CC(C)C[C@@H]1NC(=O)[C@H](CC(N)=O)NC(=O)[C@H](Cc2c[nH]c3ccccc23)NC(=O)[C@H](C(C)C)NC(=O)[C@H](CCC(=O)O)NC(=O)[C@H](Cc2c[nH]cn2)NC(=O)[C@H]([C@@H](C)O)NC(=O)[C@H](CCCNC(=N)N)NC(=O)[C@H](CCCNC(=N)N)NC(=O)[C@H](CC(N)=O)NC(=O)[C@H](Cc2ccccc2)N(C)C(=O)[C@H](CCC(N)=O)NC(=O)[C@H](CCCNC(=N)N)NC(=O)[C@@H](Cc2ccc(O)cc2)NC(=O)CSC[C@@H](C(=O)NCC(N)=O)NC(=O)[C@H](CC(=O)O)NC1=O [Peptide N4] ({CH2CO}-[dY]RQ[NMeF]NRRTHEVWNLDCG-NH2; thioether N-16; C-terminus assumed)
kd (c-Met-Fc; Table 8, c-Met-Fc): 0.96 10^−2 s^−1 | kon (c-Met-Fc; Table 8, c-Met-Fc): 120000 M⁻¹ s⁻¹ | remaining at 1 h, 1 μM ([1]; 37° C.): 21.1%

CC(C)C[C@@H]1NC(=O)[C@H](CC(N)=O)NC(=O)[C@H](Cc2c[nH]c3ccccc23)NC(=O)[C@H](C(C)C)NC(=O)[C@H](CCC(=O)O)NC(=O)[C@H](Cc2c[nH]cn2)NC(=O)[C@H]([C@@H](C)O)NC(=O)[C@H](CCCNC(=N)N)NC(=O)[C@H](CCCNC(=N)N)N(C)C(=O)[C@H](CC(N)=O)NC(=O)[C@H](Cc2ccccc2)NC(=O)[C@H](CCC(N)=O)NC(=O)[C@H](CCCNC(=N)N)NC(=O)[C@@H](Cc2ccc(O)cc2)NC(=O)CSC[C@@H](C(=O)NCC(N)=O)NC(=O)[C@H](CC(=O)O)NC1=O [Peptide N6] ({CH2CO}-[dY]RQFN[NMeR]RTHEVWNLDCG-NH2; thioether N-16; C-terminus assumed)
Binding ability (in words) (c-Met-Fc): do not show marked deterioration | kd (c-Met-Fc; Table 8, c-Met-Fc): 0.41 10^−2 s^−1 | kon (c-Met-Fc; Table 8, c-Met-Fc): 120000 M⁻¹ s⁻¹ | ka (c-Met-Fc; Table 9, c-Met-Fc): 1.2 10^5 M^−1s^−1 | kd (c-Met-Fc; Table 9, c-Met-Fc): 0.41 10^−2s^−1 | remaining at 1 h, 1 μM ([1]; 37° C.): 85% | remaining at 4 h, 1 μM ([1]; 37° C.): 67% | Stability in serum (in words) [1]: drastically improved

CC(C)C[C@@H]1NC(=O)[C@H](CC(N)=O)NC(=O)[C@H](Cc2c[nH]c3ccccc23)NC(=O)[C@H](C(C)C)NC(=O)[C@H](CCC(=O)O)NC(=O)[C@H](Cc2c[nH]cn2)NC(=O)[C@H]([C@@H](C)O)NC(=O)[C@H](CCCNC(=N)N)N(C)C(=O)[C@H](CCCNC(=N)N)NC(=O)[C@H](CC(N)=O)NC(=O)[C@H](Cc2ccccc2)NC(=O)[C@H](CCC(N)=O)NC(=O)[C@H](CCCNC(=N)N)NC(=O)[C@@H](Cc2ccc(O)cc2)NC(=O)CSC[C@@H](C(=O)NCC(N)=O)NC(=O)[C@H](CC(=O)O)NC1=O [Peptide N7] ({CH2CO}-[dY]RQFNR[NMeR]THEVWNLDCG-NH2; thioether N-16; C-terminus assumed)
Binding ability (in words) (c-Met-Fc): do not show marked deterioration | kd (c-Met-Fc; Table 8, c-Met-Fc): 6.9 10^−2 s^−1 | kon (c-Met-Fc; Table 8, c-Met-Fc): 53000 M⁻¹ s⁻¹ | remaining at 1 h, 1 μM ([1]; 37° C.): 92% | Stability in serum (in words) [1]: drastically improved

CC(C)C[C@@H]1NC(=O)[C@H](CC(N)=O)NC(=O)[C@H](Cc2c[nH]c3ccccc23)NC(=O)[C@H](C(C)C)NC(=O)[C@H](CCC(=O)O)NC(=O)[C@H](Cc2c[nH]cn2)NC(=O)[C@H]([C@@H](C)O)N(C)C(=O)[C@H](CCCNC(=N)N)NC(=O)[C@H](CCCNC(=N)N)NC(=O)[C@H](CC(N)=O)NC(=O)[C@H](Cc2ccccc2)NC(=O)[C@H](CCC(N)=O)NC(=O)[C@H](CCCNC(=N)N)NC(=O)[C@@H](Cc2ccc(O)cc2)NC(=O)CSC[C@@H](C(=O)NCC(N)=O)NC(=O)[C@H](CC(=O)O)NC1=O [Peptide N8] ({CH2CO}-[dY]RQFNRR[NMeT]HEVWNLDCG-NH2; thioether N-16; C-terminus assumed)
kon (c-Met-Fc; Table 8, c-Met-Fc): 27000 M⁻¹ s⁻¹ | remaining at 1 h, 1 μM ([1]; 37° C.): 81% | Stability in serum (in words) [1]: drastically improved

CC(C)C[C@@H]1NC(=O)[C@H](CC(N)=O)N(C)C(=O)[C@H](Cc2c[nH]c3ccccc23)NC(=O)[C@H](C(C)C)NC(=O)[C@H](CCC(=O)O)NC(=O)[C@H](Cc2c[nH]cn2)NC(=O)[C@H]([C@@H](C)O)NC(=O)[C@H](CCCNC(=N)N)NC(=O)[C@H](CCCNC(=N)N)NC(=O)[C@H](CC(N)=O)NC(=O)[C@H](Cc2ccccc2)NC(=O)[C@H](CCC(N)=O)NC(=O)[C@H](CCCNC(=N)N)NC(=O)[C@@H](Cc2ccc(O)cc2)NC(=O)CSC[C@@H](C(=O)NCC(N)=O)NC(=O)[C@H](CC(=O)O)NC1=O [Peptide N13] ({CH2CO}-[dY]RQFNRRTHEVW[NMeN]LDCG-NH2; thioether N-16; C-terminus assumed)
kon (c-Met-Fc; Table 8, c-Met-Fc): 78000 M⁻¹ s⁻¹ | remaining at 1 h, 1 μM ([1]; 37° C.): 4.5%

CC(C)C[C@@H]1NC(=O)[C@H](CC(N)=O)NC(=O)[C@H](Cc2c[nH]c3ccccc23)NC(=O)[C@H](C(C)C)NC(=O)[C@H](CCC(=O)O)NC(=O)[C@H](Cc2c[nH]cn2)NC(=O)[C@H]([C@@H](C)O)NC(=O)[C@H](CCCNC(=N)N)NC(=O)[C@H](CCCNC(=N)N)NC(=O)[C@H](CC(N)=O)NC(=O)[C@H](Cc2ccccc2)NC(=O)[C@H](CCC(N)=O)NC(=O)[C@H](CCCNC(=N)N)NC(=O)[C@@H](Cc2ccc(O)cc2)NC(=O)CSC[C@@H](C(=O)NCC(N)=O)N(C)C(=O)[C@H](CC(=O)O)NC1=O [Peptide N16] ({CH2CO}-[dY]RQFNRRTHEVWNLD[NMeC]G-NH2; thioether N-16; C-terminus assumed)
kd (c-Met-Fc; Table 8, c-Met-Fc): 1.0 10^−2 s^−1 | kon (c-Met-Fc; Table 8, c-Met-Fc): 980000 M⁻¹ s⁻¹ | ka (c-Met-Fc; Table 9, c-Met-Fc): 9.8 10^5 M^−1s^−1 | kd (c-Met-Fc; Table 9, c-Met-Fc): 1.0 10^−2s^−1 | remaining at 1 h, 1 μM ([1]; 37° C.): 12% | remaining at 4 h, 1 μM ([1]; 37° C.): < 12%

D4-3 Bis-MAL-PEG11: dimeric peptide: two D4-3 macrocycles linked through C-terminal Cys by Bis-MAL-PEG11 linker ({CH2CO}-[dY]RQFNRRTHEVWNLDCGC; thioether N-16; not fully specified (residue 18); also: dimer: two copies joined by Bis-MAL-PEG11, linker at 18 via Bis-MAL-PEG11, other end not in the chain)
ka (c-Met-Fc; [2]): 1.2 10^6 M^−1s^−1 | kd (c-Met-Fc; [2]): 0.11 10^−2 s^−1 | Activity (c-Met phosphorylation level by ELISA) (c-Met): High | c-Met phosphorylation (c-Met): Promote | Cell migration (human HuCCT1 cells): Activate

D4-3NMe Bis-MAL-PEG11: dimeric peptide: two D4-3NMe macrocycles linked through C-terminal Cys by Bis-MAL-PEG11 linker ({CH2CO}-[dY]RQFNRRTHEVWNLDCGC; thioether N-16; not fully specified (residue 18); also: two amino acids N-methylated (N6 + N16), dimer: two D4-3NMe macrocycles linked through C-terminal Cys by Bis-MAL-PEG11)
ka (c-Met-Fc; [2]): 0.49 10^6 M^−1s^−1 | kd (c-Met-Fc; [2]): 0.040 10^−2 s^−1 | Activity (c-Met phosphorylation level by ELISA) (c-Met): High | c-Met phosphorylation (c-Met): Promote | Cell migration (human HuCCT1 cells): Activate

D4-3scr BMH: dimer of the negative control peptide D4-3scr with BMH linker ({CH2CO}-YERVNHLFRNQTWDRCGC; thioether N-16 (inferred); also: dimer of D4-3scr with BMH linker) [reference compound]
KD (c-Met-Fc; [2]): Not binding | Activity (c-Met phosphorylation level by ELISA) (c-Met): No | c-Met phosphorylation (c-Met): Not promote | Cell migration (human HuCCT1 cells): Not activate
